Here are results for ten compounds from patent publication US8828984B2, “Gold(III) complexes containing N-heterocyclic carbene ligand, synthesis, and their applications in cancer treatment and thiol detection” (University of Hong Kong, priority 2012, dated 2014).

Series [1] concerns cervical epithelioid carcinoma (HeLa). In words: MTT cytotoxicity assay, HeLa. The class given is cell-based, human. The following applies: dose required to inhibit 50% cellular growth for 72 h. The protocol:
(§1) Example 2 describes the in vitro cytotoxicity, which is indicative of the induction of cell death and/or inhibition of cellular proliferation of cancer cells, of the Au(III)-NHC complexes on cervical epithelioid carcinoma, hepatocellular carcinoma, leukemia, nasopharyngeal carcinoma, breast carcinoma, melanoma, and lung carcinoma.
(§2) By means of MTT assays, the cytotoxic properties of 1-11 were determined toward some established human cancer cell lines including hepatocellular carcinoma (HepG2), cervical epithelioid carcinoma (HeLa), lung carcinoma (NCI-H460), breast cancer (MCF-7), melanoma (B 16) and nasopharyngeal carcinoma (SUNE1).
A general note: Formazan colour is commonly taken as a measure of viable cells.

Series [2] concerns melanoma (B 16). Briefly: MTT cytotoxicity assay, B16. The class given is cell-based, mouse. The following applies: 72 h. As for the experimental part:
as §1, §2

Series [3] has as its system Thioredoxin reductase (TrxR). As to conditions: HeLa cells incubated for 1 h; compared with auranofin.
Experimental: Cell-based TrxR activity experiment was incorporated in our experiments. […] The cell lysates (10 μg proteins) were added to a buffer (100 μL) containing 100 mM potassium phosphate, pH 7.4, 1 mM EDTA and 0.2 mM NADPH. Reaction was initiated by adding 5,5′-dithiobis(2-nitrobenzoic acid) (DTNB, 3 mM final) and the TrxR activities were determined as increases in O.D. 410 nm in 10 min.
Series [4] concerns hepatocellular carcinoma (HepG2). Briefly: MTT cytotoxicity assay, HepG2. The class given is cell-based, human. The following applies: 72 h. The protocol:
as §1, §2

Series [5] has as its system breast cancer (MCF-7). In words: MTT cytotoxicity assay, MCF-7. As to conditions: 72 h. The class given is cell-based, human. As for the experimental part: as §1, §2
In series [6] the test system is nasopharyngeal carcinoma (SUNE1). Briefly: MTT cytotoxicity assay, SUNE1. It counts as cell-based, human. As to conditions: 72 h. As for the experimental part: as §1, §2
Series [7] deals with lung carcinoma (NCI-H460). In words: MTT cytotoxicity assay, NCI-H460. The following applies: 72 h. The class given is cell-based, human. As for the experimental part: as §1, §2
Series [8] can be described thus: Preliminary toxicity experiment in mice. It counts as in vivo.
For series [9], the system named is HeLa xenograft. In words: In vivo tumor inhibition, mice bearing HeLa xenograft. The following applies: 3 mg/kg, nude mice bearing HeLa xenograft.
Experimental: Female BALB/cAnN-nu (Nude), 5-7 weeks old, were purchased from the Charles River Laboratories (Wilmington, Mass.) and cared for according to the guidelines of the Laboratory Animal Unit of the University of Hong Kong (HKU). All animal experiments were conducted under the guidelines approved by the Committee on the Use of Live Animals in Teaching and Research of HKU. To establish the HeLa xenograft model, 4×10^6 HeLa cells suspended in 100 μl of PBS were inoculated into the back flanks of female BALB/cAnN-nu (Nude) mice by subcutaneous injection. When the tumor volumes reached about 50 mm^3 (4 days after tumor inoculation), the mice were randomly divided into different treatment groups (3 mg/kg of 5 or solvent control). Complex 5 was reconstituted in PET diluent (60% polyethylene glycol 400, 30% ethanol, 10% Tween 80). Complex 5 dissolved in PET diluent and then diluted in PBS or PBS supplemented with equal amount of PET were injected into the mice by intratumoral injection once every three days until the mice were sacrificed. In this model, the volume of PET diluent injected into each mouse was ≦6 μl. Tumor sizes were measured once every 3 times a week, and tumor volume (V) was calculated by the formula V=ab^2×0.52, where a and b were the longest and the shortest diameters of the xenografted tumor. The tumor inhibition was calculated according to the following formula: Inhibition percentage=[1−(V−V0)/(V′−V0′)]×100% where V and V′ are the tumor volumes of 5 treatment and solvent control, respectively. V0 and V0′ are the initial tumor volumes of the 5 treatment and solvent control, respectively.
Series [10] concerns PARP, caspase 3, 7 and 9. In words: Western blotting of apoptosis related proteins in HeLa cells. It counts as cell-based, human. The following applies: 15 μM, 48 h. The protocol:
Meanwhile, considerable attention has been paid on apoptosis for which can lead cancer cell death. After treating HeLa cells with 15 μM of complex 9 for 48 h, apoptosis related PARP, caspase 3, 7 and 9 were activated according to western blotting results (FIG. 4b).

The subject of series [11] is HeLa cells. In words: Fluorescence microscopic examination of HeLa cells. The class given is cell-based, human. As to conditions: 20 μM, 10 min, ex 340 nm. As for the experimental part:
Fluorescence microscopic examination 9: HeLa cells (1×10^5 cells) were seeded in a one chamber slide (Nalgene; Nunc) with culture medium (2 mLwell^−1) and incubated at 37° C. in a humidified atmosphere of 5% CO2/95% air for 24 h. After treating with 9 (20 μM, 1 mL) for 10 min, cells were directly exposed for fluorescent imaging without removing the old medium. The bright-field and fluorescent images (ex: 340 nm) were examined in Axiovert 200 (Carl Zeiss) and in an Axio Vision Rel. 4.5 imaging system (Carl Zeiss).

For `Cn1cc[n+](C)[c]1[Au-]12[n]3ccnc3-c3cccc([n+]31)-c1ncc[n]12.O=S(=O)([O-])C(F)(F)F` [Complex 1], the half-maximal inhibitory concentration (IC50) in series [1] was found to be 32.9 ± 1.3 µM; in series [2], 30.6 ± 0.3 µM; in series [4], 36.2 ± 2.2 µM; in [5], 18.4 ± 0.3 µM; in series [6] it was 28.7 ± 7.3 µM; in series [7] it was 55 ± 8.5 µM. In addition, in series [3], the “Inhibition of cell-based TrxR activity” value is given as “can inhibit cell-based TrxR activity similarly to auranofin”.
For `CCCCCCCCn1cc[n+](C)[c]1[Au-]12[n]3ccnc3-c3cccc([n+]31)-c1ncc[n]12.O=S(=O)([O-])C(F)(F)F` [Complex 3], the IC50 in series [1] worked out at 14 ± 0.3 µM; in series [2] it was 3.8 ± 0.1 µM; in series [4] it was 14.7 ± 1.5 µM; in series [5], 8.5 ± 0.2 µM; in series [6], 8.9 ± 0.6 µM; in series [7] it was 17.3 ± 0.3 µM.
`CCCCCCCCCCn1cc[n+](C)[c]1[Au-]12[n]3ccnc3-c3cccc([n+]31)-c1ncc[n]12.O=S(=O)([O-])C(F)(F)F` [Complex 4]: the IC50 in series [1] turned out to be 8.2 µM; in series [2], 1.6 ± 0.1 µM; in series [4], 11.8 ± 1.2 µM; in series [5], 6.5 ± 0.5 µM; in [6], 5.5 ± 0.3 µM; in series [7] it was 9.7 ± 0.4 µM.
As to `CCCCCCCCCCCCCCCCn1cc[n+](C)[c]1[Au-]12[n]3ccnc3-c3cccc([n+]31)-c1ncc[n]12.O=S(=O)([O-])C(F)(F)F` [Complex 5], in series [8] (7 mg/kg), the “Toxicity to mice at 7 mg/kg (body weight)” value is “slight drop of body weight”. In addition, in series [8] (20 mg/kg), the “Toxicity to mice at 20 mg/kg” value was “toxic to mice”. Moreover, the half-maximal inhibitory concentration (IC50) in series [1] is 1.4 ± 0.2 µM; in [2], 2.2 ± 0.1 µM; in series [4], 3.3 ± 0.5 µM; in series [5], 2.9 ± 0.2 µM; in series [6], 28.6 ± 0.3 µM; in series [7], 1.4 ± 0.1 µM. Moreover, the “Tumor inhibition after 11 days” value in series [9] (intratumoral injection once every three days, 11 days (p<0.05)) is “up to 60%”. Besides, in [9] (intratumoral injection once every three days, 14 days (p<0.01)), the “Tumor inhibition after 14 days” value is reported as at most 76%. In addition, in series [9] (intratumoral), the “Mouse death / mouse body weight loss during treatment” value was “No mouse death or mouse body weight loss was found”.
Turning to `CCCCn1cc[n+](CCCC)[c]1[Au-]12[n]3ccnc3-c3cccc([n+]31)-c1ncc[n]12.O=S(=O)([O-])C(F)(F)F` [Complex 6], the IC50 worked out at 13 ± 1.6 µM in series [1]; 8.3 ± 0.2 µM in [2]; 28.7 ± 5.9 µM in series [4]; 12.9 ± 2 µM in series [5]; 9.9 ± 0.2 µM in series [6]; 7.9 ± 1.1 µM in series [7].
`CCCCCCn1cc[n+](CCCCCC)[c]1[Au-]12[n]3ccnc3-c3cccc([n+]31)-c1ncc[n]12.O=S(=O)([O-])C(F)(F)F` [Complex 7]: the 50% inhibitory concentration (IC50) in [1] stood at 8.2 µM; in series [2] it was 7.7 ± 1 µM; in [4], 9.1 ± 0.3 µM; in [5], 8.6 ± 0.1 µM; in [6], 36.8 ± 1.6 µM; in [7] it was 34.6 ± 3.1 µM.
Consider `C[n+]1ccn(CCC[P+](c2ccccc2)(c2ccccc2)c2ccccc2)[c]1[Au-]12[n]3ccnc3-c3cccc([n+]31)-c1ncc[n]12.O=S(=O)([O-])C(F)(F)F.O=S(=O)([O-])C(F)(F)F` [Complex 8], for which the IC50 in [1] stood at 77.4 ± 1.8 µM; in series [2], 36.8 ± 0.9 µM; in [5], 49.7 ± 3 µM; in series [6], 47.3 ± 6.2 µM; in series [7] it was 65.4 ± 1.1 µM.
In the case of `Cn1cc[n+](C)[c]1[Au-]12[n]3c(nc4ccccc43)-c3cccc([n+]31)-c1nc3ccccc3[n]12.O=S(=O)([O-])C(F)(F)F` [Complex 9], the “Activation of apoptosis related PARP, caspase 3, 7 and 9 (western blotting)” value in series [10] is reported as “activated”. Also, the “Cellular fluorescence (localisation)” value in series [11] is “significant blue fluorescence was detected in cytoplasm but not in nucleus or extracellular environment”. Further, the IC50 in series [1] was determined as 14.4 µM; in series [2] it was 12.4 ± 0.1 µM; in series [4] it was 18 ± 0.5 µM; in series [5], 11.9 ± 1 µM; in series [6], 11.2 ± 0.6 µM; in series [7], 11.2 ± 0.7 µM. The “Inhibition of cell-based TrxR activity” value in [3] is listed as “can inhibit cell-based TrxR activity similarly to auranofin”.
For the compound `CCCCn1cc[n+](CCCC)[c]1[Au-]12[n]3c(nc4ccccc43)-c3cccc([n+]31)-c1nc3ccccc3[n]12.O=S(=O)([O-])C(F)(F)F` [Complex 10], the IC50 in series [1] is 9.2 ± 0.4 µM; in series [2], 5.2 ± 0.2 µM; in [4], 14.7 ± 1.1 µM; in series [5] it was 8.7 ± 0.2 µM; in series [6] it was 5.2 ± 1.6 µM; in series [7], 5.5 ± 0.3 µM.
For `CCCCCCn1cc[n+](CCCCCC)[c]1[Au-]12[n]3c(nc4ccccc43)-c3cccc([n+]31)-c1nc3ccccc3[n]12.O=S(=O)([O-])C(F)(F)F` [Complex 11], the IC50 in series [1] was 8.4 ± 0.1 µM; in [2], 5.5 ± 0.1 µM; in series [4], 2.6 ± 0.4 µM; in [5], 4 ± 0.1 µM; in series [6] it was 3.1 ± 0.3 µM; in series [7], 5 ± 0.1 µM.

Broadly, the IC50 is the concentration at which inhibition is half-maximal. A lower IC50 goes with higher potency.
